Measured values taken from patent US20250277191A1, “METHODS AND COMPOSITIONS FOR CRYOPRESERVING SUBPOPULATIONS OF LYMPHOCYTES” (Ossium Health, Inc., priority 2022, published 2025).
“Also recorded” adds a separate entry of the source.

How the values were obtained:
[1] = test system: Hematopoietic cells and bone marrow; test: CFU assay of bone marrow after thawing cells cryopreserved in DMSO; assay type: cell-based, human; conditions: for BFU-E / CFU-E / CFU-GEMM / CFU-GM / total CFU: after thawing, average score from duplicate wells
Procedure: Bone marrow prior to DMSO addition (designated “QC1”) was washed and resuspended at a concentration of 8×10^6 cells/ml in Rinse Media. Cells were aliquoted and mixed with equal volumes of DMSO solutions to yield final concentrations of either 2.5, 5 or 10% DMSO in Rinse Media. A 2.5 ml volume of each preparation was aliquoted in triplicate to 5 ml cryovials. After equilibrating for 5 minutes, the cryovials were placed in a CryoMed Controlled Rate Freezer and frozen using the following program: • Step 1. −1° C./minute to −86° C. • Step 2. −20° C./minute to −150° C. • Step 3. Hold at −150° C. The vials were transferred to LN2 after 5 minutes at −150° C. The following day, cryovials containing cryopreserved cells were thawed in a 37° C. water bath and transferred to a biological safety cabinet after sanitizing with 70% alcohol. The cells were transferred to a centrifuge tube and pelleted. After removing the supernatant, the cells were resuspended in 12.5 ml of Selection Media. The tubes were centrifuged again and the cell pellet was resuspended in final volume of 25 ml of Selection Media. Total cell counts were obtained using a Sysmex Hematology Analyzer. CFU assays were also performed. Fresh and as well as previously cryopreserved hematopoietic cells and bone marrow preparations were analyzed by CFU assay. Given the limited sample size, statistical analysis could not be performed.

[2] = test system: Hematopoietic cells and bone marrow; test: Flow cytometry of HSPC and lymphocyte subsets in cryopreserved bone marrow; assay type: cell-based, human
Procedure: Bone marrow prior to DMSO addition (designated “QC1”) was washed and resuspended at a concentration of 8×10^6 cells/ml in Rinse Media. Cells were aliquoted and mixed with equal volumes of DMSO solutions to yield final concentrations of either 2.5, 5 or 10% DMSO in Rinse Media. A 2.5 ml volume of each preparation was aliquoted in triplicate to 5 ml cryovials. After equilibrating for 5 minutes, the cryovials were placed in a CryoMed Controlled Rate Freezer and frozen using the following program: • Step 1. −1° C./minute to −86° C. • Step 2. −20° C./minute to −150° C. • Step 3. Hold at −150° C. The vials were transferred to LN2 after 5 minutes at −150° C. The following day, cryovials containing cryopreserved cells were thawed in a 37° C. water bath and transferred to a biological safety cabinet after sanitizing with 70% alcohol. The cells were transferred to a centrifuge tube and pelleted. After removing the supernatant, the cells were resuspended in 12.5 ml of Selection Media. The tubes were centrifuged again and the cell pellet was resuspended in final volume of 25 ml of Selection Media. Total cell counts were obtained using a Sysmex Hematology Analyzer. Flow cytometry was performed using non-cryopreserved Hematopoietic cells and bone marrow QC1 sample for comparison. Panel design for flow cytometry with the following panel of conjugated antibodies (see Table 1). Each tube was stained with the viability dye 7-AAD after antibody staining. [table]

Question: How did the CFU potential ([1]; 10% DMSO compared to 2.5 or 5% DMSO, qualitative) turn out when `C[S+](C)[O-]` [DMSO, dimethyl sulfoxide] was run?
Answer: significantly reduces

Question: What about the BFU-E ([1]; cryopreserved in 2.5% DMSO) of the same molecule?
Answer: 11.5

Question: What about the CFU-E ([1]; cryopreserved in 2.5% DMSO) of the same molecule?
Answer: 7.5

Question: And the CFU-GEMM ([1]; cryopreserved in 2.5% DMSO)?
Answer: 0.5

Question: What about the CFU-GM ([1]; cryopreserved in 2.5% DMSO) of the same molecule?
Answer: 7.5

Question: What about the “total CFU” value ([1]; cryopreserved in 2.5% DMSO) of the same molecule?
Answer: 27

Question: What about the BFU-E ([1]; cryopreserved in 5% DMSO) of the same molecule?
Answer: 11.5

Question: What about the CFU-E ([1]; cryopreserved in 5% DMSO) of the same molecule?
Answer: 6

Question: And the CFU-GEMM ([1]; cryopreserved in 5% DMSO)?
Answer: 0.5

Question: And the CFU-GM ([1]; cryopreserved in 5% DMSO)?
Answer: 9

Question: What about the “total CFU” value ([1]; cryopreserved in 5% DMSO) of the same molecule?
Answer: 27

Question: What about the BFU-E ([1]; cryopreserved in 10% DMSO) of the same molecule?
Answer: 4

Question: And the CFU-E ([1]; cryopreserved in 10% DMSO)?
Answer: 3.5

Question: What about the CFU-GEMM ([1]; cryopreserved in 10% DMSO) of the same molecule?
Answer: 0

Question: What about the CFU-GM ([1]; cryopreserved in 10% DMSO) of the same molecule?
Answer: 0

Question: What about the “total CFU” value ([1]; cryopreserved in 10% DMSO) of the same molecule?
Answer: 7.5

Question: What about the “total CD3+ T cells” value ([2]; 2.5% DMSO compared to either 5 or 10%, FIG. 2B) of the same molecule?
Answer: reduced

Question: What about the “Natural Killer cells (CD3-CD19-CD56+)” value ([2]; 2.5 or 5% DMSO compared with 10%, FIG. 2F) of the same molecule?
Answer: highest

Question: What about the “percentage of viable CD45LOCD34+ HSPC in thawed products” value ([2]; 5% DMSO compared with 2.5 and 10% DMSO, FIG. 2A) of the same molecule?
Answer: highest; also recorded: enhanced

Question: And the “percentage of CD3+CD4-CD8-gd TCR+ gd T cells” value ([2]; 10% DMSO compared to 2.5 and 5%, FIG. 2C)?
Answer: lowest

Question: And the “gd T cells, sensitivity to DMSO concentration” value ([2]; across 2.5, 5 and 10% DMSO)?
Answer: relatively insensitive

Question: And the “percentage of CD4+CDRA+CCR7+ naïve T cells” value ([2]; across 2.5, 5 and 10% DMSO, FIG. 2D)?
Answer: increased with increasing DMSO concentrations; also recorded: lowest with the lower DMSO concentrations

Question: What about the “naïve CD8+ T cells” value ([2]; across 2.5, 5 and 10% DMSO, significant between 2.5 and 10%, FIG. 2E) of the same molecule?
Answer: trend in decreasing; also recorded: relatively insensitive

Question: What about the “percentage of HSPC within the total viable cell population” value ([2]; cryopreserved in 5% DMSO versus fresh, FIG. 1A) of the same molecule?
Answer: increased with cryopreservation

Question: What about the “total population of T cells (CD3+)” value ([2]; cryopreserved in 5% DMSO versus fresh, FIG. 1B) of the same molecule?
Answer: decreased; also recorded: reduced

Question: And the “percentage of gd T cells” value ([2]; cryopreserved in 5% DMSO versus fresh, FIG. 1C)?
Answer: significant increase; also recorded: increased with cryopreservation

Question: What about the “percentage of CD4+/CD8+CDRA+CCL7+ naïve T cells” value ([2]; cryopreserved in 5% DMSO versus fresh, FIG. 1D and 1E) of the same molecule?
Answer: significantly decreased; also recorded: reduced

Question: What about the “percentage of NK cells” value ([2]; cryopreserved in 5% DMSO versus fresh, FIG. 1F) of the same molecule?
Answer: decreased following cryopreservation
